The values that follow come from patent US12703729B2, “GIP agonist compounds and methods” (Zealand Pharma A/S, priority 2014, dated 2026).

The target of assay [1] is human GLP-1 receptor (GLP-1R) (Homo sapiens, UniProt P43220). The assay is described as follows: Activity assay at human GLP-1 receptor, cAMP induction (AlphaScreen), Example 3.
Assay [2] has as its target T1, human GIP receptor (GIP R) (Homo sapiens, UniProt P48546).
T1 sequence (P48546 22-466): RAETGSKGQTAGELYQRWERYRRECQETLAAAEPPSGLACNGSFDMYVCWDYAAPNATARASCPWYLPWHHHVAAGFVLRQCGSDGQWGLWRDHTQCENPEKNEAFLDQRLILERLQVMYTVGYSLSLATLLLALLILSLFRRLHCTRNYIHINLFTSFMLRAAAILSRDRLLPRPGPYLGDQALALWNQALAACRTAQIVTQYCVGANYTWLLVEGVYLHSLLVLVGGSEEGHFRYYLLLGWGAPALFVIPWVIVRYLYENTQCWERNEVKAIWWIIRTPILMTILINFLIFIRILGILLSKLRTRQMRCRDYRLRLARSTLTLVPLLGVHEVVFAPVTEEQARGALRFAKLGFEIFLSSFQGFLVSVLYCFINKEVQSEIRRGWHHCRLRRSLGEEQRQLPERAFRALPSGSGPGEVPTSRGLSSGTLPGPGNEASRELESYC
The assay is described as follows: Activity assay at human GIP receptor, cAMP induction (AlphaScreen), Example 3.

A further assay deals with T2, human GIP R (Homo sapiens, UniProt P48546).
T2 sequence (P48546 22-466): T1 sequence (P48546 22-466)
The assay is described as follows: cell-based.

Molecules are shown by their SMILES. Starred links: 1 amine or outer side, 2 acyl side, 3 side chain; linkers in the order of their positions; H or OH if unused. Non-standard residues stand in square brackets, D forms with d. Residues, ends and D or L forms follow the SMILES beside them. Groups on a side chain read outwards from the residue. *: point of attachment. X1 = O=C(O)CCCCCCCCCCCCCCCCCCC(=O)N1CCN(CC(=O)*)CC1; C20 diacid = O=C(O)CCCCCCCCCCCCCCCCCCC(=O)*; γGlu = O=C(O)[C@H](CCC(=O)[*:2])N[*:1]; AEEA = NCCOCCOCC(=O)O; Aib = CC(C)(N)C(=O)O

Chain of human GLP-1 receptor (GLP-1R) (P43220 24-463): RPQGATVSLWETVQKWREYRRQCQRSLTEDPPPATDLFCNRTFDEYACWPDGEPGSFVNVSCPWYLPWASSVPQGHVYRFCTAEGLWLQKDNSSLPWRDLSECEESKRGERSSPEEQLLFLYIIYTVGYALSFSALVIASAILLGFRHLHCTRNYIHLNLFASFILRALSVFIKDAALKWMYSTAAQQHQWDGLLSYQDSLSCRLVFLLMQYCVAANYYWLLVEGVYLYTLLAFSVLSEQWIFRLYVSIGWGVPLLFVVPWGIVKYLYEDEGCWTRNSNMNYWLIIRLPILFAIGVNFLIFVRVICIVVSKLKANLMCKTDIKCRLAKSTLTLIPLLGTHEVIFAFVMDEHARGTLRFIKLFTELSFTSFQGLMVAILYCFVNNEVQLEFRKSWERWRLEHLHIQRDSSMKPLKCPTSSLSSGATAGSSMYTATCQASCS

Regarding `CC[C@H](C)[C@H](NC(=O)[C@H](CO)NC(=O)[C@H](Cc1ccc(O)cc1)NC(=O)[C@H](CC(=O)O)NC(=O)[C@H](CO)NC(=O)[C@@H](NC(=O)[C@H](Cc1ccccc1)NC(=O)[C@@H](NC(=O)CNC(=O)[C@H](CCC(=O)O)NC(=O)C(C)(C)NC(=O)[C@@H](N)Cc1ccc(O)cc1)[C@@H](C)O)[C@@H](C)CC)C(=O)N[C@@H](CCC(=O)O)C(=O)N[C@@H](CC(C)C)C(=O)N[C@@H](CC(=O)O)C(=O)N[C@@H](CCCCN)C(=O)N[C@@H](CCCCNC(=O)COCCOCCNC(=O)COCCOCCNC(=O)CC[C@H](NC(=O)CCCCCCCCCCCCCCCCCCC(=O)O)C(=O)O)C(=O)N[C@@H](C)C(=O)N[C@@H](CCC(N)=O)C(=O)N[C@@H](CCCCN)C(=O)N[C@@H](CCC(=O)O)C(=O)N[C@@H](Cc1ccccc1)C(=O)N[C@H](C(=O)N[C@@H](CCC(=O)O)C(=O)N[C@@H](Cc1c[nH]c2ccccc12)C(=O)N[C@@H](CC(C)C)C(=O)N[C@@H](CC(C)C)C(=O)N[C@@H](C)C(=O)N[C@@H](C)C(=O)NCC(=O)N1CCC[C@H]1C(=O)N[C@@H](CO)C(=O)N[C@@H](CO)C(=O)NCC(=O)N[C@@H](C)C(=O)N1CCC[C@H]1C(=O)N1CCC[C@H]1C(=O)N1CCC[C@H]1C(=O)N[C@@H](CO)C(N)=O)C(C)C` [Compound 22] (H-Y[Aib]EGTFISDYSIELDKK([AEEA-AEEA-γGlu-C20 diacid])AQKEFVEWLLAAGPSSGAPPPS-NH2), the EC50 in assay [1] was over 10000 pM; in assay [2] it was 7 pM; at human GIP R it was 5 pM.
`CC[C@H](C)[C@H](NC(=O)[C@H](CCCCN)NC(=O)[C@H](CC(=O)O)NC(=O)[C@H](CC(C)C)NC(=O)[C@H](CCC(=O)O)NC(=O)[C@@H](NC(=O)[C@H](CO)NC(=O)[C@H](Cc1ccc(O)cc1)NC(=O)[C@H](CC(=O)O)NC(=O)[C@H](CO)NC(=O)[C@@H](NC(=O)[C@H](Cc1ccccc1)NC(=O)[C@@H](NC(=O)CNC(=O)[C@H](CCC(=O)O)NC(=O)C(C)(C)NC(=O)[C@@H](N)Cc1ccc(O)cc1)[C@@H](C)O)[C@@H](C)CC)[C@@H](C)CC)C(=O)N[C@@H](C)C(=O)N[C@@H](CCC(N)=O)C(=O)N[C@@H](CCCNC(=N)N)C(=O)N[C@@H](C)C(=O)N[C@@H](Cc1ccccc1)C(=O)N[C@H](C(=O)N[C@@H](CCC(=O)O)C(=O)N[C@@H](Cc1c[nH]c2ccccc12)C(=O)N[C@@H](CC(C)C)C(=O)N[C@@H](CC(C)C)C(=O)N[C@@H](C)C(=O)NCC(=O)N1CCC[C@H]1C(=O)N[C@@H](CO)C(=O)N[C@@H](CO)C(=O)NCC(=O)N[C@@H](C)C(=O)N1CCC[C@H]1C(=O)N1CCC[C@H]1C(=O)N1CCC[C@H]1C(=O)N[C@@H](CO)C(=O)N[C@@H](CCCCNC(=O)COCCOCCNC(=O)COCCOCCNC(=O)CC[C@H](NC(=O)CCCCCCCCCCCCCCCCCCC(=O)O)C(=O)O)C(N)=O)[C@@H](C)CC` [Compound 23] (H-Y[Aib]EGTFISDYSIELDKIAQRAFIEWLLAGPSSGAPPPSK([AEEA-AEEA-γGlu-C20 diacid])-NH2): the half-maximal effective concentration (EC50) in assay [1] is over 10000 pM; in assay [2] it was 5 pM; on human GIP R it was 10 pM.
On the same counts, the results for `CC[C@H](C)[C@H](NC(=O)[C@H](CCCCN)NC(=O)[C@H](CC(=O)O)NC(=O)[C@H](CC(C)C)NC(=O)[C@H](CCC(=O)O)NC(=O)[C@@H](NC(=O)[C@H](CO)NC(=O)[C@H](Cc1ccc(O)cc1)NC(=O)[C@H](CC(=O)O)NC(=O)[C@H](CO)NC(=O)[C@@H](NC(=O)[C@H](Cc1ccccc1)NC(=O)[C@@H](NC(=O)CNC(=O)[C@H](CCC(=O)O)NC(=O)C(C)(C)NC(=O)[C@@H](N)Cc1ccc(O)cc1)[C@@H](C)O)[C@@H](C)CC)[C@@H](C)CC)C(=O)N[C@@H](C)C(=O)N[C@@H](CCC(N)=O)C(=O)N[C@@H](CCCCN)C(=O)N[C@@H](CCC(=O)O)C(=O)N[C@@H](Cc1ccccc1)C(=O)N[C@H](C(=O)N[C@@H](CCC(=O)O)C(=O)N[C@@H](Cc1c[nH]c2ccccc12)C(=O)N[C@@H](CC(C)C)C(=O)N[C@@H](CC(C)C)C(=O)N[C@@H](C)C(=O)NCC(=O)N1CCC[C@H]1C(=O)N[C@@H](CO)C(=O)N[C@@H](CO)C(=O)NCC(=O)N[C@@H](C)C(=O)N1CCC[C@H]1C(=O)N1CCC[C@H]1C(=O)N1CCC[C@H]1C(=O)N[C@@H](CO)C(=O)N[C@@H](CCCCNC(=O)COCCOCCNC(=O)COCCOCCNC(=O)CC[C@H](NC(=O)CCCCCCCCCCCCCCCCCCC(=O)O)C(=O)O)C(N)=O)[C@@H](C)CC` [Compound 24] (H-Y[Aib]EGTFISDYSIELDKIAQKEFIEWLLAGPSSGAPPPSK([AEEA-AEEA-γGlu-C20 diacid])-NH2) are over 10000 pM, 10 pM and 8 pM.
In the same order, the values of `CC[C@H](C)[C@H](NC(=O)[C@H](CCCCN)NC(=O)[C@H](CC(=O)O)NC(=O)[C@H](CC(C)C)NC(=O)[C@H](CCC(=O)O)NC(=O)[C@@H](NC(=O)[C@H](CO)NC(=O)[C@H](Cc1ccc(O)cc1)NC(=O)[C@H](CC(=O)O)NC(=O)[C@H](CO)NC(=O)[C@@H](NC(=O)[C@H](Cc1ccccc1)NC(=O)[C@@H](NC(=O)CNC(=O)[C@H](CCC(=O)O)NC(=O)C(C)(C)NC(=O)[C@@H](N)Cc1ccc(O)cc1)[C@@H](C)O)[C@@H](C)CC)[C@@H](C)CC)C(=O)N[C@@H](C)C(=O)N[C@@H](C)C(=O)N[C@@H](CCC(N)=O)C(=O)N[C@@H](CC(=O)O)C(=O)N[C@@H](Cc1ccccc1)C(=O)N[C@H](C(=O)N[C@@H](CCC(=O)O)C(=O)N[C@@H](Cc1c[nH]c2ccccc12)C(=O)N[C@@H](CC(C)C)C(=O)N[C@@H](CC(C)C)C(=O)N[C@@H](C)C(=O)NCC(=O)N1CCC[C@H]1C(=O)N[C@@H](CO)C(=O)N[C@@H](CO)C(=O)NCC(=O)N[C@@H](C)C(=O)N1CCC[C@H]1C(=O)N1CCC[C@H]1C(=O)N1CCC[C@H]1C(=O)N[C@@H](CO)C(=O)N[C@@H](CCCCNC(=O)COCCOCCNC(=O)COCCOCCNC(=O)CC[C@H](NC(=O)CCCCCCCCCCCCCCCCCCC(=O)O)C(=O)O)C(N)=O)[C@@H](C)CC` [Compound 25] (H-Y[Aib]EGTFISDYSIELDKIAAQDFIEWLLAGPSSGAPPPSK([AEEA-AEEA-γGlu-C20 diacid])-NH2) are over 100000 pM, 8 pM and 32 pM.
On to `CC[C@H](C)[C@H](NC(=O)[C@H](CCCCN)NC(=O)[C@H](CC(=O)O)NC(=O)[C@H](CC(C)C)NC(=O)[C@H](CCC(=O)O)NC(=O)[C@@H](NC(=O)[C@H](CO)NC(=O)[C@H](Cc1ccc(O)cc1)NC(=O)[C@H](CC(=O)O)NC(=O)[C@H](CO)NC(=O)[C@@H](NC(=O)[C@H](Cc1ccccc1)NC(=O)[C@@H](NC(=O)CNC(=O)[C@H](CCC(=O)O)NC(=O)C(C)(C)NC(=O)[C@@H](N)Cc1ccc(O)cc1)[C@@H](C)O)[C@@H](C)CC)[C@@H](C)CC)C(=O)N[C@@H](C)C(=O)N[C@@H](C)C(=O)N[C@@H](CCC(N)=O)C(=O)N[C@@H](CC(=O)O)C(=O)N[C@@H](Cc1ccccc1)C(=O)N[C@H](C(=O)N[C@@H](CCC(=O)O)C(=O)N[C@@H](Cc1c[nH]c2ccccc12)C(=O)N[C@@H](CC(C)C)C(=O)N[C@@H](CC(C)C)C(=O)N[C@@H](C)C(=O)NCC(=O)N1CCC[C@H]1C(=O)N[C@@H](CO)C(=O)N[C@@H](CO)C(=O)NCC(=O)N[C@@H](C)C(=O)N1CCC[C@H]1C(=O)N1CCC[C@H]1C(=O)N1CCC[C@H]1C(=O)N[C@@H](CO)C(=O)N[C@@H](CCCCNC(=O)COCCOCCNC(=O)COCCOCCNC(=O)CN1CCN(C(=O)CCCCCCCCCCCCCCCCCCC(=O)O)CC1)C(N)=O)[C@@H](C)CC` [Compound 26] (H-Y[Aib]EGTFISDYSIELDKIAAQDFIEWLLAGPSSGAPPPSK([AEEA-AEEA-X1])-NH2), for which the half-maximal effective concentration (EC50) in assay [1] was over 10000 pM; in assay [2] it was 32 pM; at human GIP R, 17 pM.
In the same order, the values of `CC[C@H](C)[C@H](NC(=O)[C@H](CCCCN)NC(=O)[C@H](CC(=O)O)NC(=O)[C@H](CC(C)C)NC(=O)[C@H](CCC(=O)O)NC(=O)[C@@H](NC(=O)[C@H](CO)NC(=O)[C@H](Cc1ccc(O)cc1)NC(=O)[C@H](CC(=O)O)NC(=O)[C@H](CO)NC(=O)[C@@H](NC(=O)[C@H](Cc1ccccc1)NC(=O)[C@@H](NC(=O)CNC(=O)[C@H](CCC(=O)O)NC(=O)C(C)(C)NC(=O)[C@@H](N)Cc1ccc(O)cc1)[C@@H](C)O)[C@@H](C)CC)[C@@H](C)CC)C(=O)N[C@@H](C)C(=O)N[C@@H](C)C(=O)N[C@@H](CCC(N)=O)C(=O)N[C@@H](CC(=O)O)C(=O)N[C@@H](Cc1ccccc1)C(=O)N[C@H](C(=O)N[C@@H](CCC(=O)O)C(=O)N[C@@H](Cc1c[nH]c2ccccc12)C(=O)N[C@@H](CC(C)C)C(=O)N[C@@H](CC(C)C)C(=O)N[C@@H](C)C(=O)NCC(=O)N1CCC[C@H]1C(=O)N[C@@H](CO)C(=O)N[C@@H](CO)C(=O)NCC(=O)N[C@@H](C)C(=O)N1CCC[C@H]1C(=O)N1CCC[C@H]1C(=O)N1CCC[C@H]1C(=O)N[C@@H](CO)C(=O)N[C@@H](CCCCNC(=O)COCCOCCNC(=O)COCCOCCNC(=O)CC[C@H](NC(=O)CCCCCCCCCCCCCCCCCCC(=O)O)C(=O)O)C(N)=O)C(C)C` [Compound 27] (H-Y[Aib]EGTFISDYSIELDKIAAQDFVEWLLAGPSSGAPPPSK([AEEA-AEEA-γGlu-C20 diacid])-NH2) are over 10000 pM, 17 pM and 13 pM.
